PubChem BioAssay AID248 (DTP/NCI, 2004)
Several values for one entry are separate records, joined by “and”; a condition that tells them apart may be missing. Equal values may be shown once. Inconclusive results and toxic doses are left out.

Tested on: L1210 leukemia ip in BDF1 mice, survival T/C
Assay: NCI In Vivo Anticancer Drug Screen. Data for tumor model L1210 Leukemia (intraperitoneal) in B6D2F1 (BDF1) mice
Conditions: endpoint: mean survival time, higher = longer survival
Outline: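 Survival endpoint. Drug-treated group vs vehicle group, expressed as T divided by C. Tumor passaged by transplantation.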

[1] = dose: 100.0 mg/kg/injection, schedule: Q01DX009 (ip), vehicle: Klucel (hydroxypropylcellulose) (HPC)
[2] = dose: 100.0 mg/kg/injection, schedule: Q04DX003 (ip), vehicle: Klucel (hydroxypropylcellulose) (HPC)
[3] = dose: 200.0 mg/kg/injection, schedule: Q01DX009 (ip), vehicle: Klucel (hydroxypropylcellulose) (HPC)
[4] = dose: 200.0 mg/kg/injection, schedule: Q04DX003 (ip), vehicle: Klucel (hydroxypropylcellulose) (HPC)
[5] = dose: 400.0 mg/kg/injection, schedule: Q01DX009 (ip), vehicle: Klucel (hydroxypropylcellulose) (HPC)
[6] = dose: 400.0 mg/kg/injection, schedule: Q04DX003 (ip), vehicle: Klucel (hydroxypropylcellulose) (HPC)
[7] = dose: 100.0 mg/kg/injection, schedule: Q04DX002 (ip), vehicle: Klucel (hydroxypropylcellulose) (HPC)
[8] = dose: 200.0 mg/kg/injection, schedule: Q04DX002 (ip), vehicle: Klucel (hydroxypropylcellulose) (HPC)
[9] = dose: 400.0 mg/kg/injection, schedule: Q04DX002 (ip), vehicle: Klucel (hydroxypropylcellulose) (HPC)
[10] = dose: 100.0 mg/kg/injection, schedule: Q01DX001 (ip), vehicle: saline with Tween-80
[11] = dose: 200.0 mg/kg/injection, schedule: Q01DX001 (ip), vehicle: saline with Tween-80
[12] = dose: 400.0 mg/kg/injection, schedule: Q01DX001 (ip), vehicle: saline with Tween-80
[13] = dose: 100.0 mg/kg/injection, schedule: Q01DX001 (ip), vehicle: carboxymethylcellulose (CMC)
[14] = dose: 200.0 mg/kg/injection, schedule: Q01DX001 (ip), vehicle: carboxymethylcellulose (CMC)
[15] = dose: 0.31 mg/kg/injection, schedule: Q01DX009 (ip), vehicle: saline
[16] = dose: 0.62 mg/kg/injection, schedule: Q01DX009 (ip), vehicle: saline

## N/C=C(/NC(=O)c1ccccc1C(N)=O)C(=O)O
dose: 75.0 mg/kg/injection, schedule: Q01DX001 (ip), vehicle: saline
  T/C: 100 % of control
dose: 150.0 mg/kg/injection, schedule: Q01DX001 (ip), vehicle: saline
  T/C: 100 % of control
dose: 300.0 mg/kg/injection, schedule: Q01DX001 (ip), vehicle: saline
  T/C: 91 % of control

## CC(=O)OC1C(NC(=O)OCc2ccccc2)CC(NC(=O)OCc2ccccc2)C(O)C1O (stereo not drawn)
dose: 100.0 mg/kg/injection, schedule: Q04DX003 (ip), vehicle: saline with Tween-80
  T/C: 94 % of control
dose: 200.0 mg/kg/injection, schedule: Q04DX003 (ip), vehicle: saline with Tween-80
  T/C: 88 % of control

## CCCCC1=C(c2ccccc2)C(=O)OC1=O
[1]
  T/C: 95 % of control
[2]
  T/C: 88 % of control
[3]
  T/C: 95 % of control
[4]
  T/C: 98 % of control
[5]
  T/C: 100 % of control
[6]
  T/C: 89 % of control

## N#C/C(N)=C(\C#N)N=C1CCCCC1=O
[7]
  T/C: 94 % of control
[8]
  T/C: 91 % of control
[9]
  T/C: 94 % of control

## CCOC(=O)C(=O)c1c2cn(O)nc(OC)c-2nc1[N+](=O)[O-]
dose: 12.5 mg/kg/injection, schedule: Q04DX002 (ip), vehicle: saline with Tween-80
  T/C: 89 % of control
dose: 25.0 mg/kg/injection, schedule: Q04DX002 (ip), vehicle: saline with Tween-80
  T/C: 96 % of control
dose: 50.0 mg/kg/injection, schedule: Q04DX002 (ip), vehicle: saline with Tween-80
  T/C: 96 % of control

## CCCNC(=O)Oc1c(C)cccc1C
dose: 50.0 mg/kg/injection, schedule: Q01DX009 (ip), vehicle: carboxymethylcellulose (CMC)
  T/C: 105 % of control and 107 % of control
dose: 100.0 mg/kg/injection, schedule: Q01DX001 (ip), vehicle: other
  T/C: 95 % of control
dose: 100.0 mg/kg/injection, schedule: Q01DX009 (ip), vehicle: carboxymethylcellulose (CMC)
  T/C: 96 % of control
[7]
  T/C: 92 % of control
dose: 100.0 mg/kg/injection, schedule: Q04DX002 (ip), vehicle: carboxymethylcellulose (CMC)
  T/C: 103 % of control and 104 % of control
dose: 100.0 mg/kg/injection, schedule: Q04DX003 (ip), vehicle: other
  T/C: 103 % of control
dose: 200.0 mg/kg/injection, schedule: Q01DX001 (ip), vehicle: other
  T/C: 96 % of control
dose: 200.0 mg/kg/injection, schedule: Q01DX009 (ip), vehicle: carboxymethylcellulose (CMC)
  T/C: 103 % of control
[8]
  T/C: 103 % of control
dose: 200.0 mg/kg/injection, schedule: Q04DX002 (ip), vehicle: carboxymethylcellulose (CMC)
  T/C: 97 % of control and 88 % of control
dose: 200.0 mg/kg/injection, schedule: Q04DX003 (ip), vehicle: other
  T/C: 104 % of control
dose: 400.0 mg/kg/injection, schedule: Q01DX001 (ip), vehicle: other
  T/C: 102 % of control
dose: 400.0 mg/kg/injection, schedule: Q04DX003 (ip), vehicle: other
  T/C: 109 % of control

## Cc1cc(=O)n(/C=C/C(=O)O)c2ccccc12
[2]
  T/C: 97 % of control
[4]
  T/C: 112 % of control
[6]
  T/C: 94 % of control

## Cc1c(Cl)cccc1NC(=O)c1cccc(C(=O)Nc2cccc(Cl)c2C)c1
[1]
  T/C: 112 % of control
[2]
  T/C: 91 % of control
[3]
  T/C: 93 % of control
[4]
  T/C: 90 % of control
[5]
  T/C: 88 % of control
[6]
  T/C: 98 % of control

## c1ccc(SCC2C3CSC4C3CC2C4Sc2ccccc2)cc1 (stereo not drawn)
[10]
  T/C: 98 % of control
[11]
  T/C: 105 % of control
[12]
  T/C: 94 % of control

## Cc1ccc2cccnc2c1
[13]
  T/C: 93 % of control
[14]
  T/C: 93 % of control
dose: 400.0 mg/kg/injection, schedule: Q01DX001 (ip), vehicle: carboxymethylcellulose (CMC)
  T/C: 86 % of control

## COC(=O)c1c[nH]c2cc(OC(C)C)c(OC(C)C)cc2c1=O
[10]
  T/C: 96 % of control
[11]
  T/C: 91 % of control
[12]
  T/C: 100 % of control

## O=C(NCCCl)Nc1c2ccccc2nc2ccccc12
[1]
  T/C: 97 % of control
[2]
  T/C: 103 % of control
[3]
  T/C: 89 % of control
[4]
  T/C: 103 % of control
[6]
  T/C: 104 % of control

## O=C1NC(=O)N(c2ccc(Cl)cc2)C1=O
dose: 100.0 mg/kg/injection, schedule: Q04DX002 (ip), vehicle: saline with Tween-80
  T/C: 111 % of control
dose: 200.0 mg/kg/injection, schedule: Q04DX002 (ip), vehicle: saline with Tween-80
  T/C: 90 % of control

## CC1(C)OCC(CO)(Nc2nc(N3CC3)nc(N3CC3)n2)CO1
[15]
  T/C: 105 % of control
[16]
  T/C: 111 % of control
dose: 2.5 mg/kg/injection, schedule: Q01DX009 (ip), vehicle: saline
  T/C: 152 % of control and 168 % of control
dose: 7.5 mg/kg/injection, schedule: Q01DX009 (ip), vehicle: saline
  T/C: 101 % of control

## CCN(CC)c1ccc(Cc2ccc3c(c2O)C(=O)c2c(O)cccc2C3=O)cc1
dose: 100.0 mg/kg/injection, schedule: Q01DX009 (ip), vehicle: saline
  T/C: 94 % of control
dose: 100.0 mg/kg/injection, schedule: Q04DX002 (ip), vehicle: saline
  T/C: 101 % of control
dose: 200.0 mg/kg/injection, schedule: Q01DX009 (ip), vehicle: saline
  T/C: 96 % of control
dose: 200.0 mg/kg/injection, schedule: Q04DX002 (ip), vehicle: saline
  T/C: 92 % of control
dose: 400.0 mg/kg/injection, schedule: Q01DX009 (ip), vehicle: saline
  T/C: 97 % of control
dose: 400.0 mg/kg/injection, schedule: Q04DX002 (ip), vehicle: saline
  T/C: 89 % of control

## O=C(Nc1ccccc1Cl)N(C1CCCCC1)C1CCCCC1
[7]
  T/C: 103 % of control
[8]
  T/C: 100 % of control
[9]
  T/C: 106 % of control

## C[C@]12CC[C@H](O)C[C@@H]1CC[C@@H]1[C@@H]2C(=O)C[C@]2(C)C3=CC(=O)O[C@H]3C[C@@H]12
dose: 5.0 mg/kg/injection, schedule: Q01DX Z (sc), vehicle: steriod suspending solution
  T/C: 94 % of control and 108 % of control
dose: 10.0 mg/kg/injection, schedule: Q01DX Z (sc), vehicle: steriod suspending solution
  T/C: 97 % of control and 100 % of control
dose: 20.0 mg/kg/injection, schedule: Q01DX Z (sc), vehicle: steriod suspending solution
  T/C: 94 % of control and 102 % of control
dose: 40.0 mg/kg/injection, schedule: Q01DX Z (sc), vehicle: steriod suspending solution
  T/C: 94 % of control and 96 % of control and 100 % of control
dose: 80.0 mg/kg/injection, schedule: Q01DX Z (sc), vehicle: steriod suspending solution
  T/C: 104 % of control
dose: 160.0 mg/kg/injection, schedule: Q01DX Z (sc), vehicle: steriod suspending solution
  T/C: 95 % of control
dose: 320.0 mg/kg/injection, schedule: Q01DX Z (sc), vehicle: steriod suspending solution
  T/C: 95 % of control
dose: 640.0 mg/kg/injection, schedule: Q01DX015 (sc), vehicle: steriod suspending solution
  T/C: 100 % of control
dose: 1280.0 mg/kg/injection, schedule: Q01DX015 (sc), vehicle: steriod suspending solution
  T/C: 96 % of control

## CCCCCCC1(C)CCC(=O)O1 (stereo not drawn)
dose: 100.0 mg/kg/injection, schedule: Q01DX001 (ip), vehicle: saline
  T/C: 94 % of control
dose: 200.0 mg/kg/injection, schedule: Q01DX001 (ip), vehicle: saline
  T/C: 94 % of control
dose: 400.0 mg/kg/injection, schedule: Q01DX001 (ip), vehicle: saline
  T/C: 100 % of control

## O=c1oc2c(CN3CCCC3)c(O)ccc2c2c1CCCC2
[13]
  T/C: 91 % of control
[14]
  T/C: 98 % of control

## c1ccc2c(c1)ccc1cc3cccc[n+]3cc12
[15]
  T/C: 98 % of control
[16]
  T/C: 98 % of control
dose: 1.25 mg/kg/injection, schedule: Q01DX009 (ip), vehicle: saline
  T/C: 101 % of control and 104 % of control
dose: 5.0 mg/kg/injection, schedule: Q04DX003 (ip), vehicle: saline
  T/C: 102 % of control
dose: 10.0 mg/kg/injection, schedule: Q04DX003 (ip), vehicle: saline
  T/C: 96 % of control

## Cc1ncc(CN2CSC(CCO)C2C)c(N)n1 (stereo not drawn)
dose: 100.0 mg/kg/injection, schedule: Q01DX001 (ip), vehicle: Klucel (hydroxypropylcellulose) (HPC)
  T/C: 95 % of control
dose: 200.0 mg/kg/injection, schedule: Q01DX001 (ip), vehicle: Klucel (hydroxypropylcellulose) (HPC)
  T/C: 93 % of control
dose: 400.0 mg/kg/injection, schedule: Q01DX001 (ip), vehicle: Klucel (hydroxypropylcellulose) (HPC)
  T/C: 93 % of control

## O=C(COc1cc(Cl)c(Cl)cc1Cl)Nc1ccccc1Br
[7]
  T/C: 95 % of control
[8]
  T/C: 98 % of control
[9]
  T/C: 106 % of control
